Results on 30 compounds are retold here after EP1192125B9, “MONO-SUBSTITUTED 3-PROPYL GAMMA-AM[…]” (Warner-Lambert Company LLC, priority 1999, dated 2000).

Molecules are shown by their SMILES. Read-outs that look alike come from different tables or passages of the source.

Common to all, as to format: in vivo
Experiment [1] concerns DBA/2 mice. Briefly: DBA2 mouse model of anticonvulsant efficacy (sound-induced seizures). On the set-up: Anticonvulsant % Protect 2 br / Anticonvulsant % Protect 1hr: concentration or dose not given beside the values. The conditions noted are these: for Anticonvulsant % Protect 2 br / Anticonvulsant % Protect 1hr: Table 1; for responders at 30 mg/kg: Mus musculus.
Experiment [2] can be described thus: Anxiolytic activity relative to pregabalin (test model not specified). To be noted: 30 mg/kg PO; percent of pregabalin activity.
Experiment [3] deals with Male Sprague-Dawley rats. Briefly: Carrageenin-induced hyperalgesia, rat paw pressure test. The conditions noted are these: dosed orally at 30 mg/kg. (The carrageenan paw model is a standard test of acute inflammation.)
Procedure: Male Sprague-Dawley rats (70-90 g) were trained on this apparatus before the test day. Pressure was gradually applied to the hind paw of each rat and nociceptive thresholds were determined as the pressure (g) required to elicit paw withdrawal. […] On the test day, two to three baseline measurements were taken before animals were administered 100 µL of 2% carrageenin by intraplantar injection into the right hind paw.
[4] abbreviates: 30 mg/kg PO, 1h, read-out: Anticonvulsant % Protect* 1h.
[5] abbreviates: 30 mg/kg PO, 2h, read-out: Anticonvulsant % Protect* 2h.

In the case of `CC[C@@H](C)[C@H](CN)CC(=O)O`, in experiment [1], the “Anticonvulsant % Protect 2 br” value was 0% and the “Anticonvulsant % Protect 1hr” value is given as 0%.

Consider `CC(C)[C@@H](C)C(CN)CC(=O)O` (stereo partly drawn), for which, in experiment [1], the “Anticonvulsant % Protect 2 br” value came to 100% and the “Anticonvulsant % Protect 1hr” value came out at 80%.

With `CCC(CC)C(CN)CC(=O)O` (stereo not drawn), in experiment [1], the “Anticonvulsant % Protect 2 br” value came to 20% and the “Anticonvulsant % Protect 1hr” value was 0%.

Regarding `CCC(CC)CC(CN)CC(=O)O` (stereo not drawn), in experiment [1], the “Anticonvulsant % Protect 2 br” value stood at 20% and the “Anticonvulsant % Protect 1hr” value stood at 0%.

Consider `CCC(C)CC(CN)CC(=O)O` (stereo not drawn), for which, in experiment [1], the “Anticonvulsant % Protect 2 br” value was 100% and the “Anticonvulsant % Protect 1hr” value amounted to 60%.

As to `CCC(C)CC(CN)CC(=O)O` (racemic) [3-Aminomethyl-5-methylheptanoic acid], the values for the responders at 30 mg/kg in experiment [1] (setting [4]) and in experiment [1] (setting [5]) were 60% and 100%, respectively. For the same compound, in experiment [2], the “Anxiolytic Activity* % Preg. Act.” value is given as 79%.

As for `CC(C)C(c1ccccc1)C(CN)CC(=O)O` (stereo not drawn) [3-Aminomethyl-5-methyl-4-phenyl-hexanoic acid], the responders at 30 mg/kg in experiment [1] (setting [4]) and in experiment [1] (setting [5]) was 0% each time.

Consider `CC(Cc1ccccc1)CC(CN)CC(=O)O` (stereo not drawn) [3-Aminomethyl-5-methyl-6-phenyl-hexanoic acid], for which the responders at 30 mg/kg in experiment [1] (setting [4]) and in experiment [1] (setting [5]) was 0% each time.

For `C=CCC(C)CC(CN)CC(=O)O` (stereo not drawn) [3-Aminomethyl-5-methyl-oct-7-enoic acid], the responders at 30 mg/kg in experiment [1] (setting [4]) and in experiment [1] (setting [5]) was 0% each time.

With `CCCCCC(C)CC(CN)CC(=O)O` (stereo not drawn) [3-Aminomethyl-5-methyldecanoic acid, 3-Aminomethyl-5-methyl-decanoic acid], the responders at 30 mg/kg in experiment [1] (setting [4]) and in experiment [1] (setting [5]) was 0% throughout.

With `CCCCC(C)CC(CN)CC(=O)O` (stereo not drawn) [3-Aminomethyl-5-methylnonanoic acid, 3-Aminomethyl-5-methyl-nonanoic acid], the responders at 30 mg/kg in experiment [1] (setting [4]) was found to be 40%; in experiment [1] (setting [5]), 80%.

As for `CCCC(C)CC(CN)CC(=O)O` (stereo not drawn) [3-Aminomethyl-5-methyloctanoic acid, 3-Aminomethyl-5-methyl-octanoic acid], the responders at 30 mg/kg stood at 40% in experiment [1] (setting [4]) and 100% in experiment [1] (setting [5]).

`CC(CC(CN)CC(=O)O)C(F)(F)F` (stereo not drawn) [3-Aminomethyl-6,6,6-trifluoro-5-methyl-hexanoic acid]: the responders at 30 mg/kg in experiment [1] (setting [4]) and in experiment [1] (setting [5]) was 0% throughout.

On to `CCC(C(C)C)C(CN)CC(=O)O` (stereo not drawn) [3-aminomethyl-4-isopropyl-hexanoic acid, 3-Aminomethyl-4-isopropyl-hexanoic acid], for which the responders at 30 mg/kg in experiment [1] (setting [4]) and in experiment [1] (setting [5]) was 0% each time.

Turning to `CCCCC(C(C)C)C(CN)CC(=O)O` (stereo not drawn) [3-aminomethyl-4-isopropyl-octanoic acid, 3-Aminomethyl-4-isopropyl-octanoic acid], the responders at 30 mg/kg in experiment [1] (setting [4]) and in experiment [1] (setting [5]) was 0% each time.

For the compound `CC(C)[C@@H](C)[C@H](CN)CC(=O)O` [(3R,4R)-3-Aminomethyl-4,5-dimethyl-hexanoic acid], in experiment [2], the “Anxiolytic Activity* % Preg. Act.” value amounted to 204%.

For the compound `CC(C)[C@H](C)[C@H](CN)CC(=O)O` [(3R,4S)-3-Aminomethyl-4,5-dimethyl-hexanoic acid], the “Anxiolytic Activity* % Preg. Act.” value in experiment [2] was found to be 58%.

Regarding `CC(C)[C@@H](C)[C@@H](CN)CC(=O)O` [(3S,4R)3-Aminomethyl-4,5-dimethyl-hexanoic acid], in experiment [1] (30 mg/kg PO, 1h), the “Anticonvulsant % Protect* 1h” value stood at 20%. Moreover, the “Anticonvulsant % Protect* 2h” value in experiment [1] (30 mg/kg PO, 2h) is on record as 20%. In experiment [2], the “Anxiolytic Activity* % Preg. Act.” value is reported as 12%.

For `CCCCC[C@@H](C)C[C@H](CN)CC(=O)O` [(3S,5R)-3-Aminomethyl-5-methyl-decanoic acid], the responders at 30 mg/kg in experiment [1] (setting [4]) and in experiment [1] (setting [5]) was 100% each time. Further, in experiment [2], the “Anxiolytic Activity* % Preg. Act.” value is given as 105.59%.

As for `CC[C@@H](C)C[C@H](CN)CC(=O)O` [(3S,5R)-3-Aminomethyl-5-methyl-heptanoic acid], the “Anticonvulsant % Protect* 2h” value in experiment [1] (30 mg/kg PO, 2h) was found to be 100%.

Consider `CCCC[C@@H](C)C[C@H](CN)CC(=O)O.Cl` [(3S,5R)-3-Aminomethyl-5-methyl-nonanoic acid hydrochloride], for which the responders at 30 mg/kg in experiment [1] (setting [4]) and in experiment [1] (setting [5]) was 100% each time. Further, the “Anxiolytic Activity* % Preg. Act.” value in experiment [2] was 125.94%.

As for `CCC[C@@H](C)C[C@H](CN)CC(=O)O.Cl` [(3S,5R)-3-Aminomethyl-5-methyl-octanoic acid hydrochloride], the responders at 30 mg/kg in experiment [1] (setting [4]) and in experiment [1] (setting [5]) was 100% throughout. For the same compound, the “Anxiolytic Activity* % Preg. Act.” value in experiment [2] is 160%.

On to `CCCCC[C@H](C)C[C@H](CN)CC(=O)O` [(3S,5S)-3-Aminomethyl-5-methyl-decanoic acid], for which the responders at 30 mg/kg in experiment [1] (setting [4]) came to 0%; in experiment [1] (setting [5]), 20%.

For the compound `CCC[C@H](C)C[C@H](CN)CC(=O)O` [(3S,5S)-3-Aminomethyl-5-methyl-octanoic acid], the responders at 30 mg/kg in experiment [1] (setting [4]) came out at 0%; in experiment [1] (setting [5]) it was 20%. Moreover, in experiment [2], the “Anxiolytic Activity* % Preg. Act.” value is given as 15.6%.

For `CCCC[C@H](C)C[C@H](CN)CC(=O)O` [(3S, 5S)-3-Aminomethyl-5-methyl-nonanoic acid], the responders at 30 mg/kg in experiment [1] (setting [4]) and in experiment [1] (setting [5]) was 0% in each case.

For the compound `Cl.O=C(O)[C@H]1CNCC12CCCCC2` [(R)-2-Aza-spiro[4.5]decane-4-carboxylic acid hydrochloride], the “percent of maximum possible effect (MPE)” value in experiment [3] (1 hour postdose) is recorded as 53%; in experiment [3] (2 hours postdose) it was 4.6%.

In the case of `CCCC(C)C[C@H](CN)CC(=O)O` (stereo partly drawn) [(S)-3-Aminomethyl-5-methyl-octanoic acid], the responders at 30 mg/kg in experiment [1] (setting [4]) and in experiment [1] (setting [5]) was 100% in each case. Moreover, the “Anxiolytic Activity* % Preg. Act.” value in experiment [2] is recorded as 135.38%.

For `COCC(C)C[C@H](CN)CC(=O)O` (stereo partly drawn) [(S)-3-Aminomethyl-6-methoxy-5-methyl-hexanoic acid], the responders at 30 mg/kg in experiment [1] (setting [4]) and in experiment [1] (setting [5]) was 0% in each case.

`CC(C)C[C@H](CN)CC(=O)O` [Pregabalin, (S)-3-(Aminomethyl)-5-methylhexanoic acid, reference compound]: the responders at 30 mg/kg in experiment [1] (setting [5]) came to 100%. The “Anxiolytic Activity* % Preg. Act.” value in experiment [2] is on record as 100%.

As to `CC(C)CC(CN)CC(=O)O` (stereo not drawn) [reference compound], the “Anticonvulsant % Protect 2 br” value in experiment [1] was found to be 100%.
